Where “and” joins values, the source holds several entries; their conditions need not be identical. Identical values can stand only once.
What was measured:
[1] = Liquid, Closed cell (Static) method
[2] = wn = mass fraction of the nth substance listed; settings: 100 kPa, Liquid; for viscosity: Capillary tube (Ostwald / Ubbelohde) method; for mass density: Vibrating tube method

O [water]
[1]
Settings | vapor or sublimation pressure
274.15 K | 0.661 kPa and 0.657 kPa
278.15 K | 0.873 kPa
279.48 K | 0.953 kPa
283.15 K | 1.228 kPa
286.16 K | 1.508 kPa
291.39 K | 2.094 kPa
293.14 K | 2.337 kPa
293.15 K | 2.339 kPa
296.31 K | 2.839 kPa
296.32 K | 2.834 kPa
298.81 K | 3.288 kPa
301.37 K | 3.827 kPa
303.15 K | 4.247 kPa
303.57 K | 4.36 kPa
307.73 K | 5.507 kPa
308.26 K | 5.666 kPa
312.87 K | 7.275 kPa
313.07 K | 7.345 kPa
313.15 K | 7.385 kPa
314.62 K | 7.977 kPa
318.13 K | 9.585 kPa and 9.578 kPa
322.99 K | 12.26 kPa
323.1 K | 12.32 kPa
323.15 K | 12.35 kPa
323.17 K | 12.36 kPa
328.14 K | 15.75 kPa
328.88 K | 16.31 kPa
333.15 K | 20.06 kPa and 19.95 kPa
343.15 K | 31.28 kPa and 31.2 kPa
353.15 K | 47.45 kPa and 47.41 kPa
363.15 K | 70.21 kPa and 70.18 kPa
373.15 K | 101.42 kPa and 101.42 kPa
383.15 K | 143.29 kPa and 143.38 kPa
393.15 K | 198.75 kPa and 198.67 kPa
403.15 K | 270.22 kPa and 270.28 kPa
413.15 K | 361.64 kPa and 361.54 kPa
423.15 K | 476.33 kPa and 476.17 kPa
433.15 K | 618.34 kPa and 618.24 kPa
443.15 K | 792.15 kPa and 792.19 kPa
453.15 K | 1002.7 kPa and 1002.8 kPa
463.15 K | 1255.2 kPa and 1255.2 kPa
468.15 K | 1398.9 kPa
470.15 K | 1459.7 kPa
471.15 K | 1491 kPa and 1490.9 kPa

O=S(=O)([N-]S(=O)(=O)C(F)(F)F)C(F)(F)F.[Li+] [lithium bis((trifluoromethyl)sulfonyl)amide] + O
[2]
Settings | mass density, 298.15 K [kg/m3] | mass density, 323.15 K [kg/m3] | mass density, 348.15 K [kg/m3] | mass density, 373.15 K [kg/m3] | viscosity, 298.15 K [mPa·s] | viscosity, 323.15 K [mPa·s] | viscosity, 348.15 K [mPa·s] | viscosity, 373.15 K [mPa·s]
w1 = 0.2739 | 1160 | 1148 | 1131 | 1109 | 1.54 | 0.88 | 0.59 | 0.48
w1 = 0.4871 | 1325 | 1304 | 1282 | 1258 | 2.74 | 1.5 | 1 | 0.68
w1 = 0.6633 | 1493 | 1467 | 1440 | 1401 | 5.34 | 2.83 | 1.82 | 1.54
w1 = 0.8024 | 1654 | 1624 | 1598 | 1557 | 18.23 | 8.75 | 5.2 | 3.42
